For one assay, the system named is MCF-7 cells. In words: Breast Cancer Cell Viability Assay (MCF-7, CellTiter-Glo). In kind it is cell-based. The note with it: 5 days' compound exposure; for IC50: Homo sapiens, MCF7, 120 h. The method in brief:
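MCF-7 cells, 320 per well in RPMI with 10% FBS and 20 mM HEPES, adhered overnight, then exposed 5 days to an eleven-point semilog dilution (final 0.3-0.000003 μM). CellTiter-Glo luminescence read; % viability = (sample − cell-free background)/(untreated − background) × 100.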

Another assay concerns the target T1, ER-α (Homo sapiens, UniProt P03372).
T1 sequence (P03372 1-595): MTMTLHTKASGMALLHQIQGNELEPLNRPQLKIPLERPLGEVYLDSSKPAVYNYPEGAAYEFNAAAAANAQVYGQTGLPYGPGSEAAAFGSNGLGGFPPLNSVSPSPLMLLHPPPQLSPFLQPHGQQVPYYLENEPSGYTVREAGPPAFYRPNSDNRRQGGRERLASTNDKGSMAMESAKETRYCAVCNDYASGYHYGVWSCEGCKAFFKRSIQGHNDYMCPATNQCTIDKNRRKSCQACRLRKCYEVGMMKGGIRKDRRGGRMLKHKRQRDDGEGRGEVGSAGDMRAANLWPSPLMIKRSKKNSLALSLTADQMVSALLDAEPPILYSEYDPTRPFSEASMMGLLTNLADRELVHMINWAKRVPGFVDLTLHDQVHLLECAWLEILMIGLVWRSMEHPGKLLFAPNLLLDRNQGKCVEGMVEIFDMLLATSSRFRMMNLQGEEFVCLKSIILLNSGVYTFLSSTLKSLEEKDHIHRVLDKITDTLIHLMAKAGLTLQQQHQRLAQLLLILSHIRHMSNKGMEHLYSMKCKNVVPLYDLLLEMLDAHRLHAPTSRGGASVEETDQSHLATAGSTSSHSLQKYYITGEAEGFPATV
In words: Breast Cancer Cell ER-α In Cell Western Assay (SP1). The format is cell-based. Particulars: MCF-7 cells, SP1 antibody, 4 or 24 hr post compound addition; for Emax: MCF7, read-out: ER-α In Cell Western Assay (SP1) Max Response; for DC50: read-out: ER-α In Cell Western Assay (SP1) IC50. The method in brief: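 ER-α protein levels measured by in-cell western with SP1 antibody, ratioed to DRAQ5 DNA signal and given as percent of untreated controls. Compounds added at 0.3–0.000003 μM final (eleven semilog points) to adherent MCF-7 cells in stripped serum; exposure 4 or 24 h before fixation.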

The results in this text go back to patent US8455534B2, “Estrogen receptor modulators and uses thereof” (Aragon Pharmaceuticals, Inc., priority 2010, dated 2013).

As a reminder, the IC50 is the midpoint of a concentration-inhibition curve. A lower IC50 goes with greater potency in that assay.

As for `COC/C(=C(/c1ccc(/C=C/C(=O)O)cc1)c1ccc2[nH]ncc2c1)c1ccccc1` [Compound 48, (E)-3-(4-((Z)-1-(1H-Indazol-5-yl)-3-methoxy-2-phenylprop-1-en-1-yl)phenyl)acrylic acid], in the assay on MCF-7 cells, the “MCF7 Viability Assay Max Response” value is “++ (++ = a single % value ≧ 40%)” and the IC50 is no more than 100 nM. On ER-α, the Emax is no less than 40% and the DC50 was no more than 100 nM.

Consider `CC/C(=C(/c1ccc(/C=C/C(=O)O)cc1)c1ccc2[nH]ncc2c1F)c1ccccc1` [Compound 49, (E)-3-(4-((E)-1-(4-Fluoro-1H-indazol-5-yl)-2-phenylbut-1-en-1-yl)phenyl)acrylic acid], for which, in the assay with MCF-7 cells, the “MCF7 Viability Assay Max Response” value is given as “++ (++ = a single % value ≧ 40%)” and the IC50 was no more than 100 nM. Moreover, at ER-α, the Emax was no less than 40% and the DC50 was no more than 100 nM.

On to `CC/C(=C(/c1ccc(/C=C/C(=O)O)cc1)c1cc2cn[nH]c2cc1Cl)c1ccccc1` [Compound 50, (E)-3-(4-((E)-1-(6-Chloro-1H-indazol-5-yl)-2-phenylbut-1-en-1-yl)phenyl)acrylic acid], for which, in the assay on MCF-7 cells, the “MCF7 Viability Assay Max Response” value is on record as “++ (++ = a single % value ≧ 40%)” and the IC50 was no more than 100 nM. Further, on ER-α, the Emax was no less than 40% and the DC50 was no more than 100 nM.

`CC(C)C/C(=C(/c1ccc(/C=C/C(=O)O)cc1)c1ccc2[nH]ncc2c1)c1ccccc1` [Compound 51, (E)-3-(4-((E)-1-(1H-Indazol-5-yl)-4-methyl-2-phenylpent-1-en-1-yl)phenyl)acrylic acid]: in the assay on MCF-7 cells, the “MCF7 Viability Assay Max Response” value was “++ (++ = a single % value ≧ 40%)” and the IC50 was no more than 100 nM. At ER-α, the Emax was no less than 40% and the DC50 is no more than 100 nM.

In the case of `CC/C(=C(/c1ccc(/C=C/C(=O)O)cc1)c1ccc2[nH]ncc2c1Cl)c1ccccc1` [Compound 52, (E)-3-(4-((E)-1-(4-Chloro-1H-indazol-5-yl)-2-phenylbut-1-en-1-yl)phenyl)acrylic acid], in the assay on MCF-7 cells, the “MCF7 Viability Assay Max Response” value was “++ (++ = a single % value ≧ 40%)” and the IC50 was no more than 100 nM. At ER-α, the Emax is no less than 40% and the DC50 was no more than 100 nM.

For the molecule `O=C(O)/C=C/c1ccc(/C(=C(\c2ccccc2)C2CCCC2)c2ccc3[nH]ncc3c2)cc1` [Compound 53, (E)-3-(4-((E)-2-Cyclopentyl-1-(1H-indazol-5-yl)-2-phenylvinyl)phenyl)acrylic acid], in the assay on MCF-7 cells, the “MCF7 Viability Assay Max Response” value is “++ (++ = a single % value ≧ 40%)” and the IC50 was no more than 100 nM. On ER-α, the Emax was no less than 40% and the DC50 is no more than 100 nM.

For `O=C(O)/C=C/c1ccc(/C(=C(\c2ccccc2)C2CCCCC2)c2ccc3[nH]ncc3c2)cc1` [Compound 54, (E)-3-(4-((E)-2-Cyclohexyl-1-(1H-indazol-5-yl)-2-phenylvinyl)phenyl)acrylic acid], in the assay with MCF-7 cells, the “MCF7 Viability Assay Max Response” value is “++ (++ = a single % value ≧ 40%)” and the IC50 was no more than 100 nM. For the same molecule, on ER-α, the Emax was no less than 40% and the DC50 is no more than 100 nM.

As to `CC(C)/C(=C(/c1ccc(/C=C/C(=O)O)cc1)c1ccc2[nH]ncc2c1)c1ccccc1` [Compound 55, (E)-3-(4-((E)-1-(1H-Indazol-5-yl)-3-methyl-2-phenylbut-1-en-1-yl)phenyl)acrylic acid], in the assay with MCF-7 cells, the “MCF7 Viability Assay Max Response” value was “++ (++ = a single % value ≧ 40%)” and the IC50 was no more than 100 nM. Moreover, at ER-α, the Emax is no less than 40% and the DC50 is no more than 100 nM.

For `O=C(O)/C=C/c1ccc(/C(=C(/CC2CC2)c2ccccc2)c2ccc3[nH]ncc3c2)cc1` [Compound 56, (E)-3-(4-((E)-3-Cyclopropyl-1-(1H-indazol-5-yl)-2-phenylprop-1-en-1-yl)phenyl)acrylic acid], in the assay on MCF-7 cells, the “MCF7 Viability Assay Max Response” value is recorded as “++ (++ = a single % value ≧ 40%)” and the IC50 was no more than 100 nM. Besides, on ER-α, the Emax was no less than 40% and the DC50 was no more than 100 nM.

For `O=C(O)/C=C/c1ccc(/C(=C(\c2ccccc2Cl)C2CC2)c2ccc3[nH]ncc3c2)cc1` [Compound 57, (E)-3-(4-((E)-2-(2-Chlorophenyl)-2-cyclopropyl-1-(1H-indazol-5-yl)vinyl)phenyl)acrylic acid], in the assay with MCF-7 cells, the “MCF7 Viability Assay Max Response” value is listed as “++ (++ = a single % value ≧ 40%)” and the IC50 was no more than 100 nM. Moreover, at ER-α, the Emax was no less than 40% and the DC50 is no more than 100 nM.

For the molecule `CC/C(=C(/c1ccc(/C=C/C(=O)O)cc1)c1cc2cn[nH]c2cc1F)c1ccccc1` [Compound 58, (E)-3-(4-((E)-1-(6-Fluoro-1H-indazol-5-yl)-2-phenylbut-1-en-1-yl)phenyl)acrylic acid], in the assay on MCF-7 cells, the “MCF7 Viability Assay Max Response” value is reported as “++ (++ = a single % value ≧ 40%)” and the IC50 was no more than 100 nM. Besides, on ER-α, the Emax was no less than 40% and the DC50 was no more than 100 nM.

In the case of `CCCC/C(=C(/c1ccc(/C=C/C(=O)O)cc1)c1ccc2[nH]ncc2c1)c1ccccc1` [Compound 59, (E)-3-(4-((E)-1-(1H-Indazol-5-yl)-2-phenylhex-1-en-1-yl)phenyl)acrylic acid], in the assay on MCF-7 cells, the “MCF7 Viability Assay Max Response” value is given as “++ (++ = a single % value ≧ 40%)” and the IC50 was no more than 100 nM. In addition, on ER-α, the Emax was no less than 40% and the DC50 is no more than 100 nM.

In the case of `O=C(O)/C=C/c1ccc(/C(=C(/CC2CCCC2)c2ccccc2)c2ccc3[nH]ncc3c2)cc1` [Compound 60, (E)-3-(4-((E)-3-Cyclopentyl-1-(1H-indazol-5-yl)-2-phenylprop-1-en-1-yl)phenyl)acrylic acid], in the assay on MCF-7 cells, the “MCF7 Viability Assay Max Response” value is “++ (++ = a single % value ≧ 40%)” and the IC50 was no more than 100 nM. Moreover, at ER-α, the Emax was no less than 40% and the DC50 is no more than 100 nM.

For the molecule `CC/C(=C(/c1ccc(/C=C/C(=O)O)cc1)c1ccc2[nH]ncc2c1F)c1ccc(F)cc1Cl` [Compound 61, (E)-3-(4-((E)-2-(2-Chloro-4-fluorophenyl)-1-(4-fluoro-1H-indazol-5-yl)but-1-en-1-yl)phenyl)acrylic acid], in the assay with MCF-7 cells, the “MCF7 Viability Assay Max Response” value is listed as “++ (++ = a single % value ≧ 40%)” and the IC50 is no more than 100 nM. At ER-α, the Emax was no less than 40% and the DC50 is no more than 100 nM.

Turning to `CC/C(=C(/c1ccc(/C=C/C(=O)O)cc1)c1cc(F)c2[nH]ncc2c1)c1ccccc1` [Compound 62, (E)-3-(4-((E)-1-(7-Fluoro-1H-indazol-5-yl)-2-phenylbut-1-en-1-yl)phenyl)acrylic acid], in the assay with MCF-7 cells, the “MCF7 Viability Assay Max Response” value is reported as “++ (++ = a single % value ≧ 40%)” and the IC50 is no more than 100 nM. At ER-α, the Emax was no less than 40% and the DC50 is no more than 100 nM.

As to `CC(C)C/C(=C(/c1ccc(/C=C/C(=O)O)cc1)c1ccc2[nH]ncc2c1)c1ccc(F)cc1Cl` [Compound 63, (E)-3-(4-((E)-2-(2-Chloro-4-fluorophenyl)-1-(1H-indazol-5-yl)-4-methylpent-1-en-1-yl)phenyl)acrylic acid], in the assay with MCF-7 cells, the “MCF7 Viability Assay Max Response” value was “++ (++ = a single % value ≧ 40%)” and the IC50 is no more than 100 nM. Also, on ER-α, the Emax was no less than 40% and the DC50 was no more than 100 nM.

As for `O=C(O)/C=C/c1ccc(/C(=C(\c2ccccc2)C(F)F)c2ccc3[nH]ncc3c2)cc1` [Compound 64, (E)-3-(4-((Z)-3,3-Difluoro-1-(1H-indazol-5-yl)-2-phenylprop-1-en-1-yl)phenyl)acrylic acid], in the assay on MCF-7 cells, the “MCF7 Viability Assay Max Response” value is “++ (++ = a single % value ≧ 40%)” and the IC50 was no more than 100 nM. Also, at ER-α, the Emax is no less than 40% and the DC50 is no more than 100 nM.

As to `CC/C(=C(/c1ccc(/C=C/C(=O)O)cc1)c1cc(F)c2[nH]ncc2c1)c1ccc(F)cc1Cl` [Compound 65, (E)-3-(4-((E)-2-(2-Chloro-4-fluorophenyl)-1-(7-fluoro-1H-indazol-5-yl)but-1-en-1-yl)phenyl)acrylic acid], in the assay with MCF-7 cells, the “MCF7 Viability Assay Max Response” value was “++ (++ = a single % value ≧ 40%)” and the IC50 is no more than 100 nM. Also, at ER-α, the Emax is no less than 40% and the DC50 is no more than 100 nM.

As to `O=C(O)/C=C/c1ccc(/C(=C(/CCF)c2ccccc2)c2ccc3[nH]ncc3c2)cc1` [Compound 66, (E)-3-(4-((E)-4-Fluoro-1-(1H-indazol-5-yl)-2-phenylbut-1-en-1-yl)phenyl)acrylic acid], in the assay on MCF-7 cells, the “MCF7 Viability Assay Max Response” value is reported as “++ (++ = a single % value ≧ 40%)” and the IC50 was no more than 100 nM. For the same molecule, on ER-α, the Emax is no less than 40% and the DC50 is no more than 100 nM.
